Molecules are shown by their SMILES.

Data on 14 compounds can be found in US10611740B2, “Aryl dihydro-2H-benzo[b][1,4]oxazine sulfonamide and related compounds for use as agonists of RORγ and the treatment of disease” (Lycera Corporation, priority 2015, dated 2020).

Assay [1] deals with T1, RORγ-LBD (Homo sapiens, UniProt P51449).
T1 construct: made in house; host or cells: SF9 cells (baculovirus)
T1 sequence (P51449 269-508 limits assumed): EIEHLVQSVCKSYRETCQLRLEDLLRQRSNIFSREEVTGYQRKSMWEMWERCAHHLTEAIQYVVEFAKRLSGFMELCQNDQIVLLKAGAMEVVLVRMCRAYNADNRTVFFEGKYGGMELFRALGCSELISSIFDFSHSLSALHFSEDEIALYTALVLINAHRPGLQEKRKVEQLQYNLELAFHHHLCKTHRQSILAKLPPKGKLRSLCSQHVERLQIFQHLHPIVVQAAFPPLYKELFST
The assay can be described thus: RORγ-Ligand Binding Domain (LBD) TR-FRET Assay.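 On TR-FRET Assay Max Response: 665/615 nm ratio relative to signal without ursolic acid or compound set at 100.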 It is filed as biochemical. An outline of the steps:
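His-tagged RORγ-LBD from SF9 baculovirus lysate, ~3 nM final, in 50 mM Tris pH 7.0, 50 mM KCl, 1 mM EDTA, 0.1 mM DTT, 0.01% BSA. Biotinylated SRC1 LXXLL peptide at 200 nM final with 2 μM ursolic acid; TR-FRET read-out, 1% DMSO final.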

In assay [2] the target is T2, Gal4-RORγ-LBD (Homo sapiens, UniProt P51449).
T2 construct: expressed in transfected cells; host or cells: HEK-293 cells (pcDNA3.1neo plasmid)
T2 sequence (P51449 269-508 limits assumed): T1 sequence (P51449 269-508 limits assumed)
Nature of the assay: Gal4-RORγ Luciferase Reporter Assay in HEK-293T Cells. Format: cell-based. The note with it: HEK-293 cells. An outline of the steps: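 HEK-293 cells were transiently co-transfected with Gal4-RORγ-LBD and pGL4.31 Gal4-luciferase, with ursolic acid added at 2 μM final. Compounds were incubated overnight at 37° C. in 0.2% DMSO and luminescence read with One-Glo. Max Response is the upper plateau of a 4-parameter logistic fit, with signal lacking ursolic acid or compound set to 100.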
(In general: In a reporter assay the amount or activity of a reporter protein is the signal.)

Where [3] appears, read: luciferase reporter, with 2 μM ursolic acid.

The EC50 is the concentration at which the effect is half-maximal. For the compound `O=C(O)CC[C@H]1CN(S(=O)(=O)c2cccc(C(F)(F)F)c2)c2cc(-c3cnn4ccccc34)ccc2O1` [Compound 4O, (S)-3-(6-(pyrazolo[1,5-a]pyridin-3-yl)-4-((3-(trifluoromethyl)-phenyl)sulfonyl)-3,4-dihydro-2H-benzo[b][1,4]oxazin-2-yl)propanoic acid], in assay [1], the EC50 was < 500 nM and the “TR-FRET Assay Max Response” value was “*** (The symbol “***” indicates a value in the range of greater than 150 to 200)”. Besides, in assay [2] (setting [3]), the EC50 fell in the range of 500 to 5000 nM and the “Gal4-RORγ Assay Max Response” value is on record as “** (The symbol “**” indicates a value in the range of greater than 90 to 150)”.

`CN(C)S(=O)(=O)NC[C@H]1CN(S(=O)(=O)c2cccc(C(F)(F)F)c2)c2cc(-c3cc(F)ccc3F)ccc2O1` [Compound 45A, ([[(2S)-6-(2,5-difluorophenyl)-4-[[3-(trifluoromethyl)-benzene]-sulfonyl]-3,4-dihydro-2H-1,4-benzoxazin-2-yl]methyl]sulfamoyl)-(dimethyl)amine]: in assay [1], the EC50 was < 500 nM and the “TR-FRET Assay Max Response” value is on record as “**** (The symbol “****” indicates a value greater than 200)”. For the same compound, in assay [2] (setting [3]), the concentration for a half-maximal effect (EC50) was < 500 nM and the “Gal4-RORγ Assay Max Response” value is reported as “** (The symbol “**” indicates a value in the range of greater than 90 to 150)”.

Turning to `CC(C)Cn1cc(-c2ccc3c(c2)N(S(=O)(=O)c2cccc(C(F)(F)F)c2)C[C@H](CCC(=O)O)O3)cn1` [Compound 2BH, (S)-3-(6-(1-isobutyl-1H-pyrazol-4-yl)-4-((3-(trifluoromethyl)-phenyl)sulfonyl)-3,4-dihydro-2H-benzo[b][1,4]oxazin-2-yl)propanoic acid], in assay [1], the EC50 fell in the range of 500 to 5000 nM and the “TR-FRET Assay Max Response” value is recorded as “** (The symbol “**” indicates a value in the range of greater than 90 to 150)”. Also, the EC50 in assay [2] (setting [3]) was > 10000 nM.

As for `O=C(NC[C@H]1CN(S(=O)(=O)c2cccc(C(F)(F)F)c2)c2cc(-c3cc(F)ccc3F)ccc2O1)c1cnco1` [Compound 30AK, (S)-N-((6-(2,5-difluorophenyl)-4-((3-(trifluoromethyl)phenyl)-sulfonyl)-3,4-dihydro-2H-benzo[b][1,4]oxazin-2-yl)methyl)oxazole-5-carboxamide], in assay [1], the EC50 is < 500 nM and the “TR-FRET Assay Max Response” value is on record as “**** (The symbol “****” indicates a value greater than 200)”. Also, in assay [2] (setting [3]), the EC50 fell in the range of 500 to 5000 nM and the “Gal4-RORγ Assay Max Response” value is recorded as “** (The symbol “**” indicates a value in the range of greater than 90 to 150)”.

For `CC(=O)N[C@H](C)C(=O)NC[C@H]1CN(S(=O)(=O)c2cccc(C(F)(F)F)c2)c2cc(-c3cccc(F)c3Cl)ccc2O1` [Compound 30CJ, (R)-2-acetamido-N-(((S)-6-(2-chloro-3-fluorophenyl)-4-((3-(trifluoromethyl)phenyl)-sulfonyl)-3,4-dihydro-2H-benzo[b][1,4]oxazin-2-yl)methyl)propanamide], in assay [1], the EC50 was < 500 nM and the “TR-FRET Assay Max Response” value is reported as “** (The symbol “**” indicates a value in the range of greater than 90 to 150)”. For the same compound, in assay [2] (2 μM ursolic acid), the EC50 lay within 500 to 5000 nM and the “Gal4-RORγ Assay Max Response” value is listed as “* (The symbol “*” indicates a value in the range of 25 to 90)”.

Turning to `O=C(NC[C@H]1CN(S(=O)(=O)c2cccc(C(F)(F)F)c2)c2cc(-c3cc(F)ccc3F)ccc2O1)N1CCOCC1` [Compound 16, (S)—N-((6-(2,5-difluorophenyl)-4-((3-(trifluoromethyl)phenyl)sulfonyl)-3,4-dihydro-2H-benzo[b][1,4]oxazin-2-yl)methyl)morpholine-4-carboxamide], in assay [1], the EC50 was < 500 nM and the “TR-FRET Assay Max Response” value is reported as “**** (The symbol “****” indicates a value greater than 200)”. In assay [2] (2 μM ursolic acid), the EC50 is < 500 nM and the “Gal4-RORγ Assay Max Response” value is “** (The symbol “**” indicates a value in the range of greater than 90 to 150)”.

Take `Cc1cccc(-c2ccc3c(c2)N(S(=O)(=O)c2cccc(C(F)(F)F)c2)C[C@H](CCC(=O)O)O3)c1F` [Compound 2AY, (S)-3-(6-(2-fluoro-3-methyl-phenyl)-4-((3-(trifluoro-methyl)phenyl)sulfonyl)-3,4-dihydro-2H-benzo[b][1,4]-oxazin-2-yl)propanoic acid]: in assay [1], the EC50 was < 500 nM and the “TR-FRET Assay Max Response” value was “**** (The symbol “****” indicates a value greater than 200)”. Moreover, in assay [2] (setting [3]), the EC50 lay within 500 to 5000 nM and the “Gal4-RORγ Assay Max Response” value is recorded as “**** (The symbol “****” indicates a value greater than 200)”.

Consider `COc1c(F)cc(F)cc1-c1ccc2c(c1)N(S(=O)(=O)c1cccc(C(F)(F)F)c1)C[C@H](CCC(=O)O)O2` [Compound 2BC, (S)-3-(6-(3,5-difluoro-2-methoxyphenyl)-4-((3-(trifluoromethyl)phenyl)-sulfonyl)-3,4-dihydro-2H-benzo[b][1,4]oxazin-2-yl)propanoic acid], for which, in assay [1], the EC50 was < 500 nM and the “TR-FRET Assay Max Response” value is listed as “**** (The symbol “****” indicates a value greater than 200)”. Further, in assay [2] (setting [3]), the EC50 was < 500 nM and the “Gal4-RORγ Assay Max Response” value is “*** (The symbol “***” indicates a value in the range of greater than 150 to 200)”.

Consider `COc1cc(S(=O)(=O)N2C[C@H](CCC(=O)O)Oc3ccc(-c4cc(F)cc(F)c4Cl)cc32)ccc1F` [Compound 6K, (S)-3-(6-(2-chloro-3,5-difluorophenyl)-4-((4-fluoro-3-methoxyphenyl)sulfonyl)-3,4-dihydro-2H-benzo[b][1,4]oxazin-2-yl)propanoic acid], for which, in assay [1], the EC50 is < 500 nM and the “TR-FRET Assay Max Response” value is “*** (The symbol “***” indicates a value in the range of greater than 150 to 200)”. Further, in assay [2] (setting [3]), the 50% effective concentration (EC50) is < 500 nM and the “Gal4-RORγ Assay Max Response” value is given as “** (The symbol “**” indicates a value in the range of greater than 90 to 150)”.

Consider `COc1cc(S(=O)(=O)N2C[C@H](CNC(=O)[C@@](C)(O)C(F)(F)F)Oc3ccc(-c4cc(F)ccc4F)cc32)ccc1F` [Compound 30X, (R)-N-(((S)-6-(2,5-difluorophenyl)-4-((4-fluoro-3-methoxyphenyl)sulfonyl)-3,4-dihydro-2H-benzo[b][1,4]oxazin-2-yl)methyl)-3,3,3-trifluoro-2-hydroxy-2-methylpropanamide], for which, in assay [1], the half-maximal effective concentration (EC50) was < 500 nM and the “TR-FRET Assay Max Response” value is “*** (The symbol “***” indicates a value in the range of greater than 150 to 200)”. Further, in assay [2] (setting [3]), the EC50 was < 500 nM and the “Gal4-RORγ Assay Max Response” value is recorded as “* (The symbol “*” indicates a value in the range of 25 to 90)”.

Turning to `O=C(O)CC[C@H]1CN(S(=O)(=O)c2cccc(C(F)(F)F)c2)c2cc(-c3ccc(F)cc3Cl)ccc2O1` [Compound 2W, (S)-3-(6-(2-chloro-4-fluorophenyl)-4-((3-(trifluoromethyl)phenyl)-sulfonyl)-3,4-dihydro-2H-benzo[b][1,4]oxazin-2-yl)propanoic acid], in assay [1], the EC50 was < 500 nM and the “TR-FRET Assay Max Response” value is reported as “*** (The symbol “***” indicates a value in the range of greater than 150 to 200)”. In addition, in assay [2] (setting [3]), the EC50 was 500 to 5000 nM and the “Gal4-RORγ Assay Max Response” value is given as “** (The symbol “**” indicates a value in the range of greater than 90 to 150)”.

`COc1cccc(-c2cc(F)c3c(c2)N(S(=O)(=O)c2cccc(C(F)(F)F)c2)C[C@H](CCC(=O)O)O3)c1` [Compound 22D, (S)-3-(8-fluoro-6-(3-methoxyphenyl)-4-((3-(trifluoromethyl)phenyl)sulfonyl)-3,4-dihydro-2H-benzo[b][1,4]-oxazin-2-yl)propanoic acid]: in assay [1], the EC50 is < 500 nM and the “TR-FRET Assay Max Response” value is “**** (The symbol “****” indicates a value greater than 200)”. Besides, in assay [2] (setting [3]), the half-maximal effective concentration (EC50) is < 500 nM and the “Gal4-RORγ Assay Max Response” value is “** (The symbol “**” indicates a value in the range of greater than 90 to 150)”.

On to `O=S(=O)(c1cccc(C(F)(F)F)c1)N1C[C@H](CCCO)Oc2ccc(-c3cc(F)cc(F)c3)cc21` [Compound 34C, (S)-3-(6-(3,5-difluorophenyl)-4-((3-(trifluoromethyl)phenyl)-sulfonyl)-3,4-dihydro-2H-benzo[b][1,4]oxazin-2-yl)propan-1-ol], for which, in assay [1], the EC50 was < 500 nM and the “TR-FRET Assay Max Response” value is “**** (The symbol “****” indicates a value greater than 200)”. Moreover, in assay [2] (setting [3]), the half-maximal effective concentration (EC50) is < 500 nM and the “Gal4-RORγ Assay Max Response” value is “** (The symbol “**” indicates a value in the range of greater than 90 to 150)”.

Regarding `CC(C)(C[C@H]1CN(S(=O)(=O)c2cccc(C(F)(F)F)c2)c2cc(-c3cc(F)cc(F)c3F)ccc2O1)C(=O)O` [Compound 32X, (S)-2,2-dimethyl-3-(4-((3-(trifluoromethyl)phenyl)sulfonyl)-6-(2,3,5-trifluorophenyl)-3,4-dihydro-2H-benzo[b][1,4]oxazin-2-yl)propanoic acid], in assay [1], the EC50 was < 500 nM and the “TR-FRET Assay Max Response” value is given as “*** (The symbol “***” indicates a value in the range of greater than 150 to 200)”. In assay [2] (2 μM ursolic acid), the EC50 is < 500 nM and the “Gal4-RORγ Assay Max Response” value is “** (The symbol “**” indicates a value in the range of greater than 90 to 150)”.
